Data from US20260325654A1, “METHODS AND COMPOSITIONS FOR TARGETED PROTEIN DEGRADATION” (Ranok Therapeutics (Hangzhou) Co. Ltd., priority 2023, published 2026).

Key:
[1] = test system: AGS; assay: CellTiter-Glo Reagent cancer cell line proliferation assay, AGS; format: cell-based, human; conditions: KRAS(G12D) heterozygous
From the text: (§1) The following cancer cell lines were employed: • AsPC-1 human pancreatic adenocarcinoma, homozygous KRAS(G12D), (ATCC, #CRL-1682); A-427 human lung carcinoma, heterozygous KRAS(G12D), (ATCC, #HTB-53); AGS human gastric adenocarcinoma, heterozygous KRAS(G12D), (ATCC, #CRL-1739); GP2D human colon adenocarcinoma, heterozygous KRAS(G12D), (Sigma Aldrich, 95090714); SW1990 human pancreatic adenocarcinoma, homozygous KRAS(G12D), (ATCC, #CRL2172); LU65A human lung giant cell carcinoma, heterozygous KRAS(G12C), (JCRB Cell Bank, #JCRB0054); NCIH727 human lung carcinoid, heterozygous KRAS(G12V), (ATCC, #CRL-5815); MKN1 human gastric adenosquamous carcinoma KRAS (wt), (JCRB Cell Bank, #JCRB0252). Cell lines were cultured according to ATCC, JCRB and Sigma Aldrich recommendations.
(§2) Cells were plated in 96-well tissue culture plates at 4,000 cells/well and incubated at 37° C./5% CO2 for 24 hr in 100 μl of media. 3-fold serial dilutions of each test compound were prepared ranging from 20 μM to 1.02 nM. Cells were then treated with test compounds at various concentrations with a final concentration of 0.5% DMSO/well, and then incubated at 37° C./5% CO2 for 24 hr. 100 μl of CellTiter-Glo® Reagent (Promega Corporation, Madison, WI) was added to each well and processed according manufacturer's protocol. Results were analyzed and IC50-values were calculated in GraphPad 7 software.

[2] = test system: LU65A; assay: CellTiter-Glo Reagent cancer cell line proliferation assay, LU65A; format: cell-based, human; conditions: KRAS(G12C) heterozygous
From the text: as §1, §2

[3] = test system: NCIH727; assay: CellTiter-Glo Reagent cancer cell line proliferation assay, NCIH727; format: cell-based, human; conditions: NCIH727, KRAS(G12V) heterozygous
From the text: as §1, §2

[4] = test system: GP2D; assay: CellTiter-Glo Reagent cancer cell line proliferation assay, GP2D; format: cell-based; conditions: Homo sapiens, KRAS(G12D) heterozygous, 24 hr
From the text: as §1, §2

Row | SMILES | IC50 ([1]; Homo sapiens, 24 h) | IC50 ([2]; Homo sapiens, 24 h) | IC50 ([3]; Homo sapiens, NCI-H727, 24 h) | IC50 ([1]; 24 hr) | IC50 ([2]; 24 hr) | IC50 ([3]; 24 hr) | IC50 [4]
1 | C#Cc1c(F)ccc2cc(O)cc(-c3nc(OC)c4c(N5CC6CCC(C5)N6C(=O)C(C#N)CC#N)nc(OCC5(CN6CCN(CC7CCN(c8ccc9c(c8)CN(C8CCC(=O)NC8=O)C9=O)CC7)CC6)CC5)nc4c3F)c12 (centres unmarked) [Compound 126] | < 100 nM | < 100 nM | < 100 nM | – | – | – | –
2 | C#Cc1c(F)ccc2cc(O)cc(-c3ncc4c(N5CC6CCC(C5)N6C(=O)CC(C)C#N)nc(OCC5(CN6CC7CC7C6)CC5)nc4c3OCc3ccc(-c4cn([C@H](C(=O)N5C[C@H](O)C[C@H]5C(=O)N[C@@H](CO)c5ccc(-c6ccnn6CC)cc5)C(C)C)nn4)cc3)c12 (some centres unmarked) [Compound 138] | – | – | – | > 1000 nM | > 1000 nM | > 1000 nM | –
3 | C#Cc1c(F)ccc2cc(O)cc(-c3nc(OC)c4c(N5CC6CCC(C5)N6C(=O)CC(C)C#N)nc(OCC5CCCN(CC6CCN(c7ccc8c(c7)CN(C7CCC(=O)NC7=O)C8=O)CC6)C5)nc4c3F)c12 (centres unmarked) [Compound 146] | < 100 nM | < 100 nM | < 100 nM | – | – | – | –
4 | C#Cc1c(F)ccc2cc(O)cc(-c3nc(OC)c4c(N5CCCOCC5)nc(OCC5(CN6CCN(CC7CCN(c8ccc9c(c8)CN(C8CCC(=O)NC8=O)C9=O)CC7)CC6)CC5)nc4c3F)c12 (centres unmarked) [Compound 127] | < 100 nM | < 100 nM | < 100 nM | – | – | – | –
5 | C#Cc1c(F)ccc2cc(O)cc(-c3nc(OC)c4c(N5CC6CCC(C5)N6C(=O)CC(C)C#N)nc(OCC5(CN6CCN(CC7CCN(c8cccc(NC9CCC(=O)NC9=O)c8)CC7)CC6)CC5)nc4c3F)c12 (centres unmarked) [Compound 142] | < 100 nM | < 100 nM | < 100 nM | – | – | – | –
6 | N#Cc1c(N)sc2c1C1(CCC2)CCCc2c(-c3nc(Cl)cc(OCC4(CN5CCN(CC6CCN(c7ccc8c(c7)CN(C7CCC(=O)NC7=O)C8=O)CC6)CC5)CC4)n3)noc21 (centres unmarked) [Compound 156] | < 100 nM | < 100 nM | < 100 nM | – | – | – | –
7 | C#Cc1c(F)ccc2cc(O)cc(-c3ncc4c(N5CC6CCC(C5)N6C(=O)CC(C)C#N)nc(OCC5(CN6CCN(CC7CCN(c8ccc9c(c8)CN(C8CCC(=O)NC8=O)C9=O)CC7)CC6)CC5)nc4c3F)c12 (centres unmarked) [Compound 129] | < 100 nM | < 100 nM | < 100 nM | – | – | – | –
8 | C#Cc1c(F)ccc2cc(O)cc(-c3nc(OC)c4c(N5CC6CCC(C5)N6C(=O)C[C@@H](C)C#N)nc(OCC5(CN6CCN(CC7CCN(c8ccc9c(N%10CCC(=O)NC%10=O)nn(C)c9c8)CC7)CC6)CC5)nc4c3F)c12 [Compound 160] | < 100 nM | < 100 nM | < 100 nM | – | – | – | –
9 | C#Cc1c(F)ccc2cc(O)cc(-c3ncc4c(N5CC6CCC(C5)N6C(=O)Cn5cc(COCCOCCOCCNc6ccc7c(c6)CN(C6CCC(=O)NC6=O)C7=O)nn5)nc(OCC56CCCN5C[C@@H](F)C6)nc4c3F)c12 (some centres unmarked) [Compound 141] | < 100 nM | < 100 nM | < 100 nM | – | – | – | –
10 | C#Cc1c(F)ccc2cc(O)cc(-c3nc(OC)c4c(N5CC6CCC(C5)N6C(=O)CC(C)C#N)nc(OCC5(CNC6CCC(=O)NC6=O)CC5)nc4c3F)c12 (centres unmarked) [Compound 145] | < 100 nM | < 100 nM | < 100 nM | – | – | – | –
11 | C#Cc1c(F)ccc2cc(O)cc(-c3nc4c5c(nc(OCC6(CN7CCN(CC8CCN(c9ccc%10c(c9)CN(C9CCC(=O)NC9=O)C%10=O)CC8)CC7)CC6)nc5c3F)N(CC(F)F)[C@@H](C)CO4)c12 (some centres unmarked) [Compound 158] | < 100 nM | < 100 nM | < 100 nM | – | – | – | –
12 | C#Cc1c(F)ccc2cc(O)cc(-c3nc(OC)c4c(N5CC6CCC(C5)N6C(=O)CC(C)C#N)nc(OCC5(CN6CCN(C[C@H]7CCN(c8ccc9c(c8)CN(C8CCC(=O)NC8=O)C9=O)C[C@@H]7F)CC6)CC5)nc4c3F)c12 (some centres unmarked) [Compound 154] | < 100 nM | < 100 nM | < 100 nM | – | – | – | –
13 | C#Cc1c(F)ccc2cc(O)cc(-c3nc(OC)c4c(N5CC6CCC(C5)N6C(=O)CCC#N)nc(OCC5(CN6CCC(CN7CCC(N8Cc9cc%10c(cc9C8)C(=O)N(C8CCC(=O)NC8=O)C%10)CC7)CC6)CC5)nc4c3F)c12 (centres unmarked) [Compound 163] | < 100 nM | < 100 nM | < 100 nM | – | – | – | –
14 | N#CCCC(=O)N1C2CCC1CN(c1nc(OCC3(CN4CCN(CC5CCN(c6ccc7c(c6)CN(C6CCC(=O)NC6=O)C7=O)CC5)CC4)CC3)nc3c(F)c(-c4cc(N)cc(Cl)c4C(F)(F)F)c(Cl)cc13)C2 (centres unmarked) [Compound 153] | < 100 nM | < 100 nM | < 100 nM | – | – | – | –
15 | C#Cc1c(F)ccc2cc(O)cc(-c3nc(OC(F)(F)F)c4c(N5CC6CCC(C5)N6C(=O)CCC#N)nc(OCC5(CN6CCN(CC7CCN(c8ccc9c(c8)CN(C8CCC(=O)NC8=O)C9=O)CC7)CC6)CC5)nc4c3F)c12 (centres unmarked) [Compound 151] | < 100 nM | < 100 nM | < 100 nM | – | – | – | –
16 | C#Cc1c(F)ccc2cc(O)cc(-c3ncc4c(N5CCCOC6CC65)nc(OCC5(CN6CCN(CC7CCN(c8ccc9c(c8)CN(C8CCC(=O)NC8=O)C9=O)CC7)CC6)CC5)nc4c3F)c12 (centres unmarked) [Compound 139] | > 1000 nM | > 1000 nM | > 1000 nM | – | – | – | –
17 | [2H]C([2H])([2H])Oc1nc(-c2cc(O)cc3ccc(F)c(C#C)c23)c(F)c2nc(OCC3(CN4CCN(CC5CCN(c6ccc7c(c6)CN(C6CCC(=O)NC6=O)C7=O)CC5)CC4)CC3)nc(N3CC4CCC(C3)N4CC3CC3)c12 (centres unmarked) [Compound 99] | > 1000 nM | – | – | – | – | – | 100 to 1000 nM
18 | C#Cc1c(F)ccc2cc(O)cc(-c3nc(OC)c4c(N5CC6CCC(C5)N6C(=O)C[C@@H](C)C#N)nc(OCC5(CN6CCN(CC7CCN(c8ccc9c(c8)CN(C8CCC(=O)NC8=O)C9=O)CC7)CC6)CC5)nc4c3F)c12 (some centres unmarked) [Compound 143] | < 100 nM | < 100 nM | < 100 nM | – | – | – | –
19 | C#Cc1c(F)ccc2cc(O)cc(-c3ncc4c(N5CC6CCC(C5)N6C(=O)CC(C)C#N)nc(OCC5(CN(C)Cc6ccc(C7CN(c8ccc9c(c8)CN(C8CCC(=O)NC8=O)C9=O)C7)cc6)CC5)nc4c3F)c12 (centres unmarked) [Compound 132] | < 100 nM | < 100 nM | < 100 nM | – | – | – | –
20 | C#Cc1c(F)ccc2cc(O)cc(-c3ncc4c(N5CC6CCC(C5)N6C(=O)NC5CCC5)nc(OCC5(CN6CCN(CC7CCN(c8ccc9c(c8)CN(C8CCC(=O)NC8=O)C9=O)CC7)CC6)CC5)nc4c3F)c12 (centres unmarked) [Compound 128] | < 100 nM | < 100 nM | < 100 nM | – | – | – | –
21 | C#Cc1c(F)ccc2cc(O)cc(-c3nc(OC)c4c(N5CC6CCC(C5)N6C(=O)CCC#N)nc(OCC5(CN6CCN(CC7CCN(c8ccc9c(N%10CCC(=O)NC%10=O)nn(C)c9c8)CC7)CC6)CC5)nc4c3F)c12 [Compound 159] | < 100 nM | < 100 nM | < 100 nM | – | – | – | –
22 | C#Cc1c(F)ccc2cc(O)cc(-c3ncc4c(N5CC6CCC(C5)N6C(=O)CC(C)C#N)nc(OCC5CCCN(CC6CCN(c7ccc8c(c7)CN(C7CCC(=O)NC7=O)C8=O)CC6)C5)nc4c3F)c12 (centres unmarked) [Compound 133] | < 100 nM | < 100 nM | < 100 nM | – | – | – | –
23 | C#Cc1c(F)ccc2cc(O)cc(-c3ncc4c(N5CC6CCC(C5)N6C(=O)CC(C)C#N)nc(OCC5(CN6CCN(CC7CCN(c8ccc9c(c8)CN(C8CCC(=O)N(C)C8=O)C9=O)CC7)CC6)CC5)nc4c3F)c12 (centres unmarked) [Compound 130] | 100 to 1000 nM | 100 to 1000 nM | 100 to 1000 nM | – | – | – | –
24 | C#Cc1c(F)ccc2cc(O)cc(-c3nc(OC)c4c(N5CC6CCC(C5)N6C(=O)CC(C)C#N)nc(OCC5(CN6CCN(CC7CCN(c8ccc9c(N%10CCC(=O)NC%10=O)nn(C)c9c8)CC7)CC6)CC5)nc4c3F)c12 (centres unmarked) [Compound 152] | < 100 nM | < 100 nM | < 100 nM | – | – | – | –
25 | C#Cc1c(F)ccc2cc(O)cc(-c3ncc4c(N5CC6CCC(C5)N6C(=O)CC(C)C#N)nc(OCC5(CN6CCN(CC7CCN(c8ccc9c(c8)n(C)c(=O)n9C8CCC(=O)NC8=O)CC7)CC6)CC5)nc4c3F)c12 (centres unmarked) [Compound 136] | < 100 nM | < 100 nM | < 100 nM | – | – | – | –
